Literature values, collected in patent US20140309164A1, “DEUTERATED NUCLEOSIDE PRODRUGS USEFUL FOR TREATING HCV” (priority 2013, published 2014).

Tests used:
[1] = pulled from clinical trials
HCV = conditions: percent of the trial participants; several large clinical trials

Structure (SMILES): COc1nc(N)nc2c1ncn2[C@@H]1O[C@H](COP(=O)(N[C@@H](C)C(=O)OCC(C)(C)C)Oc2cccc3ccccc23)[C@@H](O)[C@@]1(C)O (some centres unmarked) [BMS-986094]
- fatal adverse event in clinical trials [1]: death of a patient due to heart failure

Structure (SMILES): CC(C)OC(=O)[C@H](C)NP(=O)(OC[C@H]1O[C@@H](n2ccc(=O)[nH]c2=O)C(C)(F)C1O)Oc1ccccc1 (some centres unmarked) [Sovaldi, Sofosbuvir]
- sustained viral response (SVR) of twelve weeks (HCV): 50-90%

Structure (SMILES): CC(C)OC(=O)[C@H](C)NP(=S)(OC[C@H]1O[C@@H](n2ccc(=O)[nH]c2=O)[C@](C)(O)[C@@H]1O)Oc1ccccc1 (some centres unmarked) [VX-135]
- sustained viral response rate four weeks after the completion of treatment (SVR4), intent-to-treat analysis (HCV genotype 1; 200 mg VX-135 in combination with daclatasvir, treatment-naive genotype 1, 10 of 12): 83%
- completion of treatment rate (SVR4) (HCV genotype 1; eleven patients who completed 12 weeks of treatment, VX-135 in combination with daclatasvir): 91%
- serious adverse event (HCV genotype 1; one patient, VX-135 in combination with daclatasvir): serious adverse event of vomiting/nausea
